Experimental data as given in US12421222B2 (AUGUSTINE THERAPEUTICS, priority 2021, dated 2025).

System: acetylated tubulin (Lys40) in HeLa cells
Assay: Acetylated α-tubulin measurement in vitro (immunocytochemistry)
Type: cell-based
Details: Homo sapiens, 6 hours incubation, acetylated tubulin (Lys40) by immunocytochemistry, read-out: IC50 (Tubulin deacetylation)
Procedure, shortened: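 HeLa cells in serum-free medium treated 6 h at 37 °C (final DMSO 0.1–0.4%), then PFA-fixed and immunostained for acetyl-Lys40 and total α-tubulin; high-content imaging.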

SMILES	IC50
COc1cnc2nc(C)nc(SCC(=O)c3ccc(CN(C)C(=O)CO)s3)c2c1 [Example 162, 2-hydroxy-N-((5-(2-((6-methoxy-2-methylpyrido[2,3-d]pyrimidin-4-yl)thio)acetyl)thiophen-2-yl)methyl)-N-methylacetamide]	100 to 500 nM
COCC(=O)NCc1ccc(C(=O)CSc2nc(C)nc3ncc(OC)cc23)s1 [Example 163, 2-methoxy-N-((5-(2-((6-methoxy-2-methylpyrido[2,3-d]pyrimidin-4-yl)thio)acetyl)thiophen-2-yl)methyl)acetamide]	100 to 500 nM
COc1ccc2nc(C)nc(SCC(=O)c3ccc(CNC(=O)C4CCCO4)s3)c2c1 (stereo not drawn) [Example 171, N-((5-(2-((6-methoxy-2-methylquinazolin-4-yl)thio)acetyl)thiophen-2-yl)methyl)tetrahydrofuran-2-carboxamide]	100 to 500 nM
COc1ccc2nc(C)nc(SCC(=O)c3ccc(CNC(=O)C(F)F)s3)c2c1 [Example 172, 2,2-difluoro-N-((5-(2-((6-methoxy-2-methylquinazolin-4-yl)thio)acetyl)thiophen-2-yl)methyl)acetamide]	100 to 500 nM
COc1ccc2nc(C)nc(SCC(=O)c3ccc(CNC(=O)C4CN(C)C4)s3)c2c1 [Example 178, N-((5-(2-((6-methoxy-2-methylquinazolin-4-yl)thio)acetyl)thiophen-2-yl)methyl)-1-methylazetidine-3-carboxamide]	≤ 100 nM
COc1ccc2nc(C)nc(SCC(=O)c3ccc(CNC(=O)C4CCCN4)s3)c2c1 (stereo not drawn) [Example 184, N-((5-(2-((6-methoxy-2-methylquinazolin-4-yl)thio)acetyl)thiophen-2-yl)methyl)pyrrolidine-2-carboxamide]	100 to 500 nM
COc1ccc2nc(C)nc(SCC(=O)c3ccc(CNC(=O)[C@H](C)O)s3)c2c1 [Example 185, (S)-2-hydroxy-N-((5-(2-((6-methoxy-2-methylquinazolin-4-yl)thio)acetyl)thiophen-2-yl)methyl)propanamide]	≤ 100 nM
COc1ccc2nc(C)nc(SCC(=O)c3ccc(CNC(=O)[C@@H](C)O)s3)c2c1 [Example 186, (R)-2-hydroxy-N-((5-(2-((6-methoxy-2-methylquinazolin-4-yl)thio)acetyl)thiophen-2-yl)methyl)propanamide]	≤ 100 nM
COc1ccc2nc(C)nc(SCC(=O)c3ccc(CNC(=O)N(C)C)s3)c2c1 [Example 189, 3-((5-(2-((6-methoxy-2-methylquinazolin-4-yl)thio)acetyl)thiophen-2-yl)methyl)-1,1-dimethylurea]	100 to 500 nM
COc1cnc2nc(C)nc(SCC(=O)c3ccc(CNC(=O)OC(C)(C)C)s3)c2c1 [Example 190, tert-butyl ((5-(2-((6-methoxy-2-methylpyrido[2,3-d]pyrimidin-4-yl)thio)acetyl)thiophen-2-yl)methyl)carbamate]	100 to 500 nM

Next, values leading:

IC50	SMILES
≤ 100 nM	COc1cnc2nc(C(F)F)nc(SCC(=O)c3ccc(CNC(=O)CO)s3)c2c1 [Example 164, N-((5-(2-((2-(difluoromethyl)-6-methoxypyrido[2,3-d]pyrimidin-4-yl)thio)acetyl)thiophen-2-yl)methyl)-2-hydroxyacetamide]
≤ 100 nM	COc1ccc2nc(C)nc(SCC(=O)c3ccc(CNC(=O)CN)s3)c2c1 [Example 177, 2-amino-N-((5-(2-((6-methoxy-2-methylquinazolin-4-yl)thio)acetyl)thiophen-2-yl)methyl)acetamide]
≤ 100 nM	O=C(CO)NCc1ccc(C(=O)CSc2nccc3ncccc23)s1 [Example 179, N-((5-(2-((1,6-naphthyridin-5-yl)thio)acetyl)thiophen-2-yl)methyl)-2-hydroxyacetamide]
100 to 500 nM	O=C(CO)NCc1ccc(C(=O)CSc2nccc3ccncc23)s1 [Example 180, N-((5-(2-((2,7-naphthyridin-1-yl)thio)acetyl)thiophen-2-yl)methyl)-2-hydroxyacetamide]
100 to 500 nM	O=C(CO)NCc1ccc(C(=O)CSc2nccn3cncc23)s1 [Example 181, 2-hydroxy-N-((5-(2-(imidazo[1,5-a]pyrazin-8-ylthio)acetyl)thiophen-2-yl)methyl)acetamide]
500 to 1000 nM	O=C(CO)NCc1ccc(C(=O)CSc2nccn3nccc23)s1 [Example 182, 2-hydroxy-N-((5-(2-(pyrazolo[1,5-a]pyrazin-4-ylthio)acetyl)thiophen-2-yl)methyl)acetamide]
100 to 500 nM	CNCC(=O)NCc1ccc(C(=O)CSc2nc(C)nc3ccc(OC)cc23)s1 [Example 183, N-((5-(2-((6-methoxy-2-methylquinazolin-4-yl)thio)acetyl)thiophen-2-yl)methyl)-2-(methylamino)acetamide]
500 to 1000 nM	Cc1nnc(SCC(=O)c2ccc(CNC(=O)C(C)(C)C)s2)c2ccccc12 [Example 194, N-((5-(2-((4-methylphthalazin-1-yl)thio)acetyl)thiophen-2-yl)methyl)pivalamide]
